Holding throughout (type): biochemical
For test [1], the target named is β-galactosidase from e. coli (Escherichia coli, UniProt P00722). The experiment in a line: relative release rate of the leaving group on cleavage by β-galactosidase, spectrophotometric. To be noted: for APPROXIMATE RELATIVE RATE (release of leaving group, compared with ONPG): 5 × 10^-5 M compound, pH7 tris buffer, 0.01 M NaCl, 0.01 M MgCl2, 25° C., 1.5 IU β-galactosidase, ONPG = 1.0; for release rate, comparison in words: same test as the relative rate table, β-galactosidase from e. coli. The procedure: The approximate relative release rates of the leaving groups of compounds according to the invention compared with that of o-nitrophenolgalactoside (ONPG) were measured according to the following procedure: a 5 × 10^-5 M solution of the compound was formed in pH7 tris(hydroxymethyl)aminomethane buffer which was 0.01 M in sodium chloride and 0.01 M in magnesium chloride at 25° C. The solution was placed in a 3 ml cuvette and 1.5 IU of β-galactosidase from e. coli introduced. The reaction mixture was monitored in a spectrophotometer at the appropriate wavelength.
Sequence of β-galactosidase from e. coli (P00722 whole entry): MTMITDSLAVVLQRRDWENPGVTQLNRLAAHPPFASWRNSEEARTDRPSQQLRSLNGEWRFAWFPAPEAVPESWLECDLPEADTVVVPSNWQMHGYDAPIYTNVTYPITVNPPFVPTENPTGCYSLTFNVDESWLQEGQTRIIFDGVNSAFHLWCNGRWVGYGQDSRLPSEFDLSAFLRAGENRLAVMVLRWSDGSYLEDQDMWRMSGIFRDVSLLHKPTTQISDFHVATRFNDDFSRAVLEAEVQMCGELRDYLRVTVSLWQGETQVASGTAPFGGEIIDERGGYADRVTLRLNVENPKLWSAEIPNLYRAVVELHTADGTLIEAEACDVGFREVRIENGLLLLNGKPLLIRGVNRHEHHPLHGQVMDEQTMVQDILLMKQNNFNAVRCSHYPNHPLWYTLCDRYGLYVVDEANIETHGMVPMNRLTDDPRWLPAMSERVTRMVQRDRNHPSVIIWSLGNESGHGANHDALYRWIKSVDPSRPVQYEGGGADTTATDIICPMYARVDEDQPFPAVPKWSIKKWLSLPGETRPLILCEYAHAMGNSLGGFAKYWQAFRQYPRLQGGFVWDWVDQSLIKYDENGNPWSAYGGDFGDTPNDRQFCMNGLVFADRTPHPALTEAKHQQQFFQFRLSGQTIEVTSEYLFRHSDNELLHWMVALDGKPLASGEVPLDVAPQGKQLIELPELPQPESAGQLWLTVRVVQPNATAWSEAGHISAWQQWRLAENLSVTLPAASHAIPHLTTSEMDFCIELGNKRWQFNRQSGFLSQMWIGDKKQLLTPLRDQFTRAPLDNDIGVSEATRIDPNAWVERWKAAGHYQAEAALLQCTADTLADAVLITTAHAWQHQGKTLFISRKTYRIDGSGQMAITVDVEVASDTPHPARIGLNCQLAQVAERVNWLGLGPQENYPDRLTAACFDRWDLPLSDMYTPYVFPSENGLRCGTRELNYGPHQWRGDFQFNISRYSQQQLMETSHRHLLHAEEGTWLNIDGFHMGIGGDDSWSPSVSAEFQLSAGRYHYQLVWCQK

The test system of test [2] is β-galactosidase (e. coli). The experiment in a line: fluorescence rate of compound B as a function of β-galactosidase concentration (standard curve). To be noted: 45 μl 0.614 mmolar compound + 5 μl enzyme, pH 7.6, ex 550 nm/em 580 nm, 0 and 2 minutes, average of two.
Test [3] deals with anti α-TSH-β-galactosidase conjugate. The experiment in a line: release of dye from compound B by anti α-TSH-β-galactosidase conjugate, optical density and fluorescence. The note with it: 100 μl of 0.3 mmolar mixture, pH 7.0 buffer, + 10 μl conjugate, 15 minutes at 37° C., enzyme 1.3 × 10^-12 molar. As for the experimental part: A 0.3 :mmolar mixture of compound B in a pH 7.0 buffer (0.1 molar NaH2 PO 0.15 molar NaCl, 0.1% Zwittergent 3-14) was stirred at room temperature for 30 minutes and then filtered through a 0.22 μ filter element. The concentration of the compound was calculated by diluting the solution (1:10) to provide an optical density of between 0.39 and 0.41 at 470 nm (ε=20,000).
The solution (100 μl) was added to a microtiter plate well and the optical density was measured at 570 nm with an EIA Auto Reader, Model EL 310 from Bio Tek Instruments. The fluorescence of the same 100 μl volume of the solution was measured with a Titertek Fluoroska® from Flow Laboratories by exciting at 550 nm and reading at 580 nm.
To each of the 100 μl volumes of the solution there were added 10 μl of an anti α-TSH-β-galactosidase conjugate ([…] in β-galactosidase) and the mixtures were incubated for 15 minutes at 37° C. followed by measuring the optical density and fluorescence as described above.

Each structure is given as a SMILES string.

On to `O=C(c1cc2ccc(OCc3ccc(O[C@@H]4O[C@H](CO)[C@H](O)[C@H](O)[C@H]4O)c([N+](=O)[O-])c3)cc2oc1=O)N1CCOCC1` [E], for which the “APPROXIMATE RELATIVE RATE (release of leaving group, compared with ONPG)” value (“APPROXIMATE RELATIVE RATE” for short) in test [1] was 0.1-0.5.

`Cc1cc(=O)c(C(=O)N2CCOCC2)c2oc3c(C(=O)N4CCOCC4)c(OCc4ccc(O[C@@H]5O[C@H](CO)[C@H](O)[C@H](O)[C@H]5O)c([N+](=O)[O-])c4)cc(C)c3nc1-2` [B]: the “change in voltage/minute (fluorescence)” value came to 2.161 V/min in test [2] (Enzyme Conc. 1 × 10^-11); 0.247 V/min in test [2] (Enzyme Conc. 1 × 10^-12); 0.035 V/min in test [2] (Enzyme Conc. 1 × 10^-13); 0.734 V/min in test [2] (Enzyme Conc. 3 × 10^-12); 0.078 V/min in test [2] (Enzyme Conc. 3 × 10^-13). The “change in optical density” value in test [3] (570 nm) turned out to be 0.0594. Moreover, in test [3] (excitation 550 nm, reading 580 nm), the change in fluorescence was determined as 7266 mV. In addition, in test [1], the “APPROXIMATE RELATIVE RATE” value worked out at 0.3.

On to `O=C(c1cc(O[C@@H]2O[C@H](CO)[C@H](O)[C@H](O)[C@H]2O)c([N+](=O)[O-])cc1COc1ccc2nc3ccc(=O)cc-3oc2c1)N1CCOCC1` [D], for which, in test [1], the “APPROXIMATE RELATIVE RATE” value is given as 0.02 and the “release rate, comparison in words” value is reported as “much slower release rate”.

Regarding `O=c1ccc2nc3ccc(OCc4ccc(O[C@@H]5O[C@H](CO)[C@H](O)[C@H](O)[C@H]5O)c([N+](=O)[O-])c4)cc3oc-2c1` [A], in test [1], the “APPROXIMATE RELATIVE RATE” value is 0.25 and the “release rate, comparison in words” value is reported as “significantly different release rates”.

For `O=[N+]([O-])c1ccccc1O[C@@H]1O[C@H](CO)[C@H](O)[C@H](O)[C@H]1O` [ONPG, o-nitrophenolgalactoside, reference compound], in test [1], the “APPROXIMATE RELATIVE RATE” value turned out to be 1.0.

Consider `O=c1ccc2nc3ccc(OCc4cc([N+](=O)[O-])ccc4O[C@@H]4O[C@H](CO)[C@H](O)[C@H](O)[C@H]4O)cc3oc-2c1` [C], for which, in test [1], the “APPROXIMATE RELATIVE RATE” value is given as 0.005-0.05 and the “release rate, comparison in words” value was “significantly different release rates”.

The values are drawn from patent US5112739A, “Enzyme controlled release system” (Polaroid Corporation, priority 1988, dated 1992).
